Source: patent US10357468B2, “Medicaments for slowing Parkinson's disease” (BIAL—PORTELA & CA, S.A., priority 2014, dated 2019)

How the values were obtained:
[1] = Tolerability in the Example 2 study; details: OPC 25, 50 and 75 mg QD for 11 days
PD patients = assay: 1-year open label extension of placebo-controlled double-blind trials of opicapone with levodopa and AADC inhibitor (Examples 1A, 1B); type: in vivo, human

SMILES: Cc1c(Cl)c(C)[n+]([O-])c(Cl)c1-c1noc(-c2cc(O)c(O)c([N+](=O)[O-])c2)n1 [opicapone, 5-[3-(2,5-dichloro-4,6-dimethyl-1-oxy-pyridin-3-yl)-[1,2,4]oxadiazol-5-yl]-3-nitrobenzene-1,2-diol]
- tolerability profile [1]: favourable
- difference in OFF time (PD patients; PD patients, at least 12 months post commencement of treatment with opicapone (with levodopa and AADCi), FIG. 1): approximately −2.0 hrs
- difference in ON time without troublesome dyskinesia (PD patients; PD patients, at least 12 months post commencement of treatment with opicapone (with levodopa and AADCi), FIG. 2): approximately +1.5 hr
- progression of PD (PD patients; patients treated with opicapone from an earlier stage compared with groups naïve to opicapone, once a day at bedtime): progressed less
